How the values were obtained:
[1] = system: morphine-dependent animals; experiment: naloxone-precipitated morphine-withdrawal jumping (Example 10); type: in vivo, Kunming mice
[2] = system: morphine-induced conditioned place preference behavior in rats; experiment: morphine-induced conditioned place preference behavior, single oral administration before test (Example 12); type: in vivo, SD rats; conditions: 70 mg/kg single oral dose 60 minutes before test, morphine 10 mg/kg s.c. for four days
[3] = system: formation of conditioned place preference induced by morphine in rats; experiment: formation of conditioned place preference induced by morphine, concomitant administration (Example 13); type: in vivo, SD rats; conditions: 70 mg/kg oral 30 minutes before each morphine injection (10 mg/kg s.c.), four consecutive days
morphine-dependent mice = experiment: morphine-induced physical dependence, withdrawal jumping (Example 15); type: in vivo, Kunming mice; conditions: 1 g/kg, 3 hours before naloxone
SD rats = experiment: addictive potential: induction of conditioned place preference (Example 14); conditions: for CPP SCORE: morphine 10 mg/kg s.c. daily for four consecutive days, hydrochloride
[4] = 0.125 g/kg intragastric, 1 hour after administration
[5] = 0.25 g/kg intragastric, 1 hour after administration
[6] = 0.5 g/kg intragastric, 1 hour after administration
[7] = 0.5 g/kg intragastric, 3 hours after administration

CC(=O)O[C@H]1[C@H](OC(C)=O)[C@H]([C@@](C)(O)CC[C@@H]2OC(C)(C)[C@H]3CC[C@]2(C)O3)[C@@]2(C)CC[C@@H]3OC(C)(C)[C@H](OC(C)=O)CC[C@@]3(C)[C@H]12 [3,12,13-triacetyl limaxol A, (3R,5aS,7aS,8R,9R,10R,10aR,10bS)-dodecahydro-8-((S)-2-hydroxy-4-((1S,2S,5R)-1,4,4-trimethyl-3,8-dioxa-bicyclo[3.2.1]octan-2-yl)butan-2-yl)-4,4,7a,10b-tetramethyl-1H-indeno[5,4-b]oxepine-3,9,10-triol triacetate]
% Inhibition of morphine-withdrawal jumping [1, 4]: 3.0 ± 12.2% | Jumping times (Mean ± SEM) [1, 4]: 33.5 ± 4.1 | % Inhibition of morphine-withdrawal jumping [1, 5]: 21.1 ± 28.2% | Jumping times (Mean ± SEM) [1, 5]: 27.5 ± 9.4 | % Inhibition of morphine-withdrawal jumping [1, 6]: 48.2 ± 7.5% | Jumping times (Mean ± SEM) [1, 6]: 18.5 ± 2.4 | % Inhibition of morphine-withdrawal jumping [1, 7]: 45.0 ± 17.0% | Jumping times (Mean ± SEM) [1, 7]: 16.7 ± 4.9 | CPP SCORE ([2]; listed as Triacetyl limaxol A): 318.5 ± 90.9 n = 7 s | CPP SCORE ([2]; listed as triacetyl limaxol A): 318.5 ± 90.9 s | CPP SCORE ([3]; listed as Triacetyl limaxol A): 223.8 ± 34.0 n = 6 s | CPP SCORE ([3]; listed as triacetyl limaxol A): 318.5 ± 90.9 s | Inhibition of morphine-withdrawal jumping (morphine-dependent mice): 43.13% | Jumping times (Mean ± SEM) (morphine-dependent mice): 21.7 ± 6.9

CC(=O)O[C@H]1[C@H](OC(C)=O)[C@H]([C@@](C)(O)CC[C@]2(C)OC(C)(C)[C@H]3CC[C@]2(C)O3)[C@@]2(C)CC[C@@H]3OC(C)(C)[C@H](O)CC[C@@]3(C)[C@H]12 [limaxol A, reference compound]
Inhibition of morphine-withdrawal jumping (morphine-dependent mice): 21.26% | Jumping times (Mean ± SEM) (morphine-dependent mice): 30.0 ± 9.7

CCC(=O)C(CC(C)N(C)C)(c1ccccc1)c1ccccc1 (stereo not drawn) [methadone, reference compound]
Jumping times (Mean ± SEM) ([1]; methadone 20 mg/kg intragastric, 1 hour before naloxone, jumpings within 30 minutes): 33.8 ± 3.3 | withdrawal jumping symptoms versus morphine model group (in words) ([1]; methadone 20 mg/kg, 1 hour after administration): significantly reduced

CN1CC[C@]23c4c5ccc(O)c4O[C@H]2[C@@H](O)C=C[C@H]3[C@H]1C5.Cl [morphine, morphine hydrochloride]
induction of conditioned place preference (in words) (SD rats; morphine 10 mg/kg s.c.): induced conditioned place preference behavior | CPP SCORE (SD rats): 208.3 ± 16.2 s | CPP SCORE (SD rats; listed as Morphine): 208.3 ± 16.2 n = 10 s
